Measured values: patent US10517296B2, “Insect pest control material” ([…] Control Consortium, priority 2015, dated 2019)

What was measured:
[1] = tested on: Anopheles gambiae Kisumu-strain; test: Basic insecticidal activity, topical application method (Test Example 1); assay type: in vivo; conditions: for 50% Lethal Dose (LD50): female adult Anopheles gambiae Kisumu-strain, topical 0.3 μL acetone solution, mortality after 24 hours, probit method; for Relative Efficacy: ratio of LD50 values relative to Deltamethrin (=1), Kisumu-strain
Procedure: (§1) The basic insecticidal activity of the present compound was examined using a topical application method. Various concentrations of acetone solutions of the present compound were previously prepared. […] After the treatment, the female adults of Cancer Vieja Madara mosquito were moved into a plastic cup (having a diameter of 9 cm and a height of about 4.5 cm), and was fed with 5% sugar water. The mortality after 24 hours was examined. The number of the tested female adults of Cancer Vieja Madara mosquito was 10 heads per each one concentration in two replicate experiments. The 50% lethal dose (the LD50 value) of the present compound was calculated from the test result using probit method. The same experiment was conducted using Deltamethrin as a control. The lower 50% lethal dose of a compound means the higher basic insecticidal activity of the compound. The ratio of the LD50 value of the present compound relative to the LD50 value of Deltamethrin was calculated to acquire the relative efficacy of the present compound to Deltamethrin.

[2] = tested on: Anopheles gambiae VK7-strain; test: Basic insecticidal activity, topical application method, pyrethroid-resistive strain (Test Example 3); assay type: in vivo; conditions: for 50% Lethal Dose (LD50): pyrethroid-resistive female adult Anopheles gambiae VK7-strain, topical application, mortality after 24 hours; for Relative Efficacy: ratio of LD50 values relative to Deltamethrin (=1), VK7-strain
Procedure: as §1
The basic insecticidal activity of each of the present compound and Deltamethrin was examined using the same method as that used in Test Example 1. Here the tested female adults of Cancer Vieja Madara mosquito were pyrethroid-resistive female adults of Cancer Vieja Madara mosquito (Anopheles gambiae VK7-strain), and the number of the tested insects was 10 heads per each one concentration in two replicate experiments. The ratio of the LD50 value of the present compound relative to the LD50 value of Deltamethrin was calculated to acquire the relative efficacy of the present compound to Deltamethrin.

Structure (SMILES) | 50% Lethal Dose (LD50) [1] | Relative Efficacy [1] | 50% Lethal Dose (LD50) [2] | Relative Efficacy [2]
CC1(C)[C@H](C(=O)O[C@H](C#N)c2cccc(Oc3ccccc3)c2)[C@@H]1C=C(Br)Br [Deltamethrin] | 0.000094 μg/female | 1 | 0.00104 μg/female | 1
CCc1ncnc(NCCc2ccc(C(F)(F)F)cc2)c1Cl [The present compound, 5-chloro-4-ethyl-6-[2-(4-trifluoromethylphenyl)ethylamino]pyrimidine] | 0.0094 μg/female | 0.0100 | 0.01833 μg/female | 0.05674
